Columns and labels:
Experiment in all cases: relative viability (nuclei count vs DMSO), 5 days (fraction); higher = more cells survive
GSK-J4 + Crizotinib = compound: CCOC(=O)CCNc1cc(N2CCc3ccccc3CC2)nc(-c2ccccn2)n1 [GSK-J4] + C[C@@H](Oc1cc(-c2cnn(C3CCNCC3)c2)cnc1N)c1c(Cl)ccc(F)c1Cl [Crizotinib] (partner 1 µM)
In short: (§1)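 Relative viability was taken as the ratio of nuclei in treated wells to nuclei in vehicle wells. Lung cancer cell lines in 1536-well plates received compounds by pin tool one day after seeding, either one drug alone or a fixed anchor-drug dose plus five library-drug doses (not always all listed) in √10 steps. Nuclei were counted on 4× images after 5 days of treatment, and values are medians of duplicate plates.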

AZ3146 + Dasatinib = compound: CN1CCC(CC1)OC2=CC(=C(C=C2)NC3=NC=C4C(=N3)N(C(=O)N4C)C5CCCC5)OC [AZ3146] + Cc1nc(Nc2ncc(C(=O)Nc3c(C)cccc3Cl)s2)cc(N2CCN(CCO)CC2)n1 [Dasatinib] (partner 0.075 µM)
In short: as §1

AZ3146 + Luminespib = compound: CN1CCC(CC1)OC2=CC(=C(C=C2)NC3=NC=C4C(=N3)N(C(=O)N4C)C5CCCC5)OC [AZ3146] + CCNC(=O)c1noc(-c2cc(C(C)C)c(O)cc2O)c1-c1ccc(CN2CCOCC2)cc1 [Luminespib] (partner 0.01 µM)
In short: as §1

AZ3146 + Navitoclax = compound: CN1CCC(CC1)OC2=CC(=C(C=C2)NC3=NC=C4C(=N3)N(C(=O)N4C)C5CCCC5)OC [AZ3146] + CC1(C)CCC(c2ccc(Cl)cc2)=C(CN2CCN(c3ccc(C(=O)NS(=O)(=O)c4ccc(N[C@H](CCN5CCOCC5)CSc5ccccc5)c(S(=O)(=O)C(F)(F)F)c4)cc3)CC2)C1 [Navitoclax] (partner 0.5 µM)
In short: as §1

Cell Line	relative viability (GSK-J4 + Crizotinib; first compound 0.5 µM)	relative viability (GSK-J4 + Crizotinib; first compound 1.581 µM)	relative viability (GSK-J4 + Crizotinib; first compound 5 µM)	relative viability (GSK-J4 + Crizotinib; first compound 15.81 µM)	relative viability (GSK-J4 + Crizotinib; first compound 50 µM)	relative viability (AZ3146 + Dasatinib; first compound 0.08 µM)	relative viability (AZ3146 + Dasatinib; first compound 0.253 µM)	relative viability (AZ3146 + Dasatinib; first compound 0.8 µM)	relative viability (AZ3146 + Dasatinib; first compound 2.53 µM)	relative viability (AZ3146 + Dasatinib; first compound 8 µM)	relative viability (AZ3146 + Luminespib; first compound 0.08 µM)	relative viability (AZ3146 + Luminespib; first compound 0.253 µM)	relative viability (AZ3146 + Luminespib; first compound 0.8 µM)	relative viability (AZ3146 + Luminespib; first compound 2.53 µM)	relative viability (AZ3146 + Luminespib; first compound 8 µM)	relative viability (AZ3146 + Navitoclax; first compound 0.08 µM)	relative viability (AZ3146 + Navitoclax; first compound 0.253 µM)	relative viability (AZ3146 + Navitoclax; first compound 0.8 µM)	relative viability (AZ3146 + Navitoclax; first compound 2.53 µM)	relative viability (AZ3146 + Navitoclax; first compound 8 µM)
NCI-H2126	0.99	0.823	1	0.979	0.917	0.575	0.629	0.56	0.628	0.523	0.882	0.942	0.919	0.919	0.767	0.8	0.843	0.896	0.861	0.849
NCI-H2170	1.09	1.14	1.19	1.09	1.11	0.497	0.455	0.598	0.61	0.491	0.703	0.827	0.755	0.576	0.616	0.705	0.528	0.632	0.576	0.645
NCI-H2228	0.609	0.345	0.497	0.535	0.423	0.466	0.562	0.579	0.511	0.483	0.133	0.149	0.162	0.145	0.146	0.901	0.8	0.961	0.935	0.845
NCI-H2347	0.644	0.707	0.651	0.633	0.554	0.303	0.248	0.294	0.316	0.379	0.375	0.298	0.551	0.53	0.644	0.76	0.763	0.594	0.88	0.833
NCI-H2405	0.847	0.794		0.751	0.664	0.166	0.187	0.191	0.212	0.185	0.923	0.704	0.967	0.756	0.914	0.836		1	0.859	1.08
NCI-H3122	0.287	0.275	0.27	0.243	0.283	0.878	0.816	0.859	0.817	0.752	0.12	0.113	0.108	0.111	0.0978	1.05	0.985	1.03	1	1.03
PC-3 [JPC-3]	0.912	0.882	0.952	0.926	0.814	0.86	0.92	0.991	1.12	1.05	0.617	0.741	0.676	0.695	0.715	0.679	0.836	0.802	0.797	0.85
PC-14	0.858	0.896	0.843	0.842	0.855	0.271	0.268	0.259	0.229	0.0367	0.162	0.169		0.252	0.159	0.959	1.02	1.12	1.11	0.898
RERF-LC-KJ	0.709	0.837	0.721	0.872	0.768	0.877	0.874	0.779	0.837	0.504	1.15	1.2	1.22	1.29	0.668	0.872	0.878	1.04	0.787	0.839
SK-LU-1	0.756	0.762	0.725	0.607	0.584	0.197	0.177	0.162	0.182	0.137	0.216	0.206	0.231	0.252	0.231	0.914	0.702	0.793	0.926	0.576
SK-MES-1	0.987	0.977	0.724	0.939	0.942	0.42	0.311	0.387	0.316	0.258	0.657	0.581	0.769	0.847	0.585	1.32	1.22	1.3	1.35	1.35
SW 1573	0.701	0.726	0.832	0.754	0.608	0.557	0.637	0.505	0.357	0.117	0.699	0.14	0.393	0.204	0.273	0.997	1.1	1.04	0.93	0.895

Reference: the supplement of paper PMC10307832
